# According to patent US8785404B2, “Urea compounds” (Eli Lilly and Company, priority 2012, dated 2014):
# Tests used:
# [1] = molecular target: T1, human SGLT1 (Homo sapiens, UniProt P13866); assay: 14C-AMG uptake assay, human SGLT1 in CHO-K1 cells; assay type: cell-based
# T1 sequence (P13866 1-664): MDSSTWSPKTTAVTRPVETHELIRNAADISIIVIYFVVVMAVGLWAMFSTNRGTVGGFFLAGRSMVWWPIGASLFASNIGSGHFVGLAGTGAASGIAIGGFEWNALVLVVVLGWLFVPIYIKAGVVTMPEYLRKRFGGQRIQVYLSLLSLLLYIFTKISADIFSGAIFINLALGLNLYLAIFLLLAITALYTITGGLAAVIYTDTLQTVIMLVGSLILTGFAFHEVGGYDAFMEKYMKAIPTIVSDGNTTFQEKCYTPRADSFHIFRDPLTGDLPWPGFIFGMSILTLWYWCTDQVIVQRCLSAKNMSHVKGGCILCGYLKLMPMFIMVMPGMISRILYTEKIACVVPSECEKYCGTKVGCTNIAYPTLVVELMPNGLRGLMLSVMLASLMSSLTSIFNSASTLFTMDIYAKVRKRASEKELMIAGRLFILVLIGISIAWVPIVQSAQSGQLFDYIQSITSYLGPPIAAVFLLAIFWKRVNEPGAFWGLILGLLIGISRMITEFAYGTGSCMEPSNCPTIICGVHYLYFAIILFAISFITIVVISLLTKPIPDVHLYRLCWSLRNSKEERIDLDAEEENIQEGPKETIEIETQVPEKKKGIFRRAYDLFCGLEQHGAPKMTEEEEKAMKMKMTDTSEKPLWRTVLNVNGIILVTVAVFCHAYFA
# Excerpt: (§1) The cDNA encoding human SGLT1 (slc5a1, NM_000343), human SGLT2 (slc5a2, NM_003041) and mouse SGLT1 (slc5a1, NM_019810.4) are purchased from Openbiosystems, Invitrogen and Openbiosystems, respectively. The cDNA is cloned into pcDNA3.1+ for mammalian expression and is stably transfected into Chinese hamster ovary (CHO)-K1 cells using standard mammalian transfection procedures. An SGLT-expressing sub-clone of each over-expressing cell line is selected based on resistance to neomycin (Geneticin, Invitrogen) and activity in the ^14C-α-methyl-D-glucopyranoside (^14C-AMG) uptake assay (see below). Stable SGLT-expressing cells are maintained using standard cell culture techniques.
# (§2) The SGLT activity is measured as sodium-dependent ^14C-AMG uptake in the above cell lines described as follows. One hundred μL of culture medium containing 30,000 cells are seeded to each well of a 96-well BioCoat poly-D-lysine plate (Becton Dickson) and cultured at 37° C. overnight. The culture medium is aspirated and cells are washed twice with 200 μL of Reaction Buffer (140 mM NaCl, 2 mM KCl, 1 mM CaCl2, MgCl2, and 14 mM N-2-hydroethylpiperrazine-N′-2-ethanesulfonic acid (Hepes), pH 7.5). The excess buffer is tapped out onto paper towels. Thirty-five μL of Reaction Buffer are added to each well. […] After mixing, the scintillation signal in the plate is counted in a MicroBeta (PerkinElmer). […]
# [2] = tested on: C57Bl/6 mice; assay: Glucose lowering effects in oral glucose tolerance test (OGTT); assay type: in vivo, mouse; settings: for Glucose, 20 Minute / Glucose, 40 Minute / Glucose, 60 Minute / Glucose, 120 Minute / Glucose, 0 Minute / Baseline Adjusted AUC (glucose) / Glucose Cmax / Glucose Tmax: 10 mg/kg oral, mean ± SE; for Glucose, 20 Minute: 20 min after dextrose 3 g/kg; for Glucose, 40 Minute: 40 min after dextrose 3 g/kg; for Glucose, 60 Minute: 60 min after dextrose 3 g/kg; for Glucose, 120 Minute: 120 min after dextrose 3 g/kg; for Glucose, 0 Minute: baseline before dextrose 3 g/kg
# Description: The test compound is formulated by adding a vehicle of 1% hydroxyethylcellulose, 0.25% Tween® 80 w/antifoam 0.05% to preweighed test compound to make a 1 mg/ml solution. The mixture is probe sonicated for approximately 1 minute. A stir bar is added, and the resulting suspension is stirred continuously throughout dosing.
# Single housed C57Bl/6 mice are weighed and body weights used to determine study groups (n=5), within a working range of 26-30 g. After grouping, all mice are fasted overnight by removing access to food, late afternoon before test day. At the same time, two groups of mice are orally gavaged with 10 ml/kg test compound preparation or vehicle. Animals are dosed thirty seconds apart. […] The following morning, the remaining mice are weighed and orally gavaged using the same protocol as the previous day.
# At five, eight and eighteen hours after each respective compound treatment is started, a baseline blood sample is taken for measuring glucose (from the first animal, via tail snip). The animal is then immediately given an oral dose of 50% dextrose (Hospira®) at 3 g/kg. Blood samples are taken for glucose, exactly thirty seconds apart, by tail vein so that blood is collected in each animal at 20, 40, 60 and 120 minutes after the dextrose dose.
# [3] = molecular target: T2, human SGLT2 (Homo sapiens, UniProt P31639); assay: 14C-AMG uptake assay, human SGLT2 in CHO-K1 cells; assay type: cell-based; settings: sodium-dependent 14C-AMG uptake, n = 5
# T2 sequence (P31639 1-672): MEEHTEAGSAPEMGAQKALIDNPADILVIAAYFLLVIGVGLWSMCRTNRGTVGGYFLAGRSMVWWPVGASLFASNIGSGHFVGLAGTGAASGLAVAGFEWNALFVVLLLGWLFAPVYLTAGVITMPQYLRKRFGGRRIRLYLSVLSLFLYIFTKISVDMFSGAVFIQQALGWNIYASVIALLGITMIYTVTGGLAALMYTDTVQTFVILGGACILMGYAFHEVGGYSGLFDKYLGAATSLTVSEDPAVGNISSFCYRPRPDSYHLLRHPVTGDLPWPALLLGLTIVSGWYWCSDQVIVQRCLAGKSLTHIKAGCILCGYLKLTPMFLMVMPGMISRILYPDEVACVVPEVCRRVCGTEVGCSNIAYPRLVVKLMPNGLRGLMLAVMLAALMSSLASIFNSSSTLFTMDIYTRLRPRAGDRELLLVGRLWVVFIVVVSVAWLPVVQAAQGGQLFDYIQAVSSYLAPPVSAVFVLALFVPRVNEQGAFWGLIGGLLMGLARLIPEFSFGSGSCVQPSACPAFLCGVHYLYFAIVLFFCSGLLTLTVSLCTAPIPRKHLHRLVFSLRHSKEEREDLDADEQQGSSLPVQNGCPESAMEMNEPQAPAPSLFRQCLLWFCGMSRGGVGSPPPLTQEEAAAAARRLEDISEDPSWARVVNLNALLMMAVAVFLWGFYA
# Excerpt: as §1, §2
# [4] = molecular target: T3, mouse SGLT1 (Mus musculus, UniProt Q8C3K6); assay: 14C-AMG uptake assay, mouse SGLT1 in CHO-K1 cells; assay type: cell-based; settings: sodium-dependent 14C-AMG uptake, n = 5
# T3 sequence (Q8C3K6 1-665): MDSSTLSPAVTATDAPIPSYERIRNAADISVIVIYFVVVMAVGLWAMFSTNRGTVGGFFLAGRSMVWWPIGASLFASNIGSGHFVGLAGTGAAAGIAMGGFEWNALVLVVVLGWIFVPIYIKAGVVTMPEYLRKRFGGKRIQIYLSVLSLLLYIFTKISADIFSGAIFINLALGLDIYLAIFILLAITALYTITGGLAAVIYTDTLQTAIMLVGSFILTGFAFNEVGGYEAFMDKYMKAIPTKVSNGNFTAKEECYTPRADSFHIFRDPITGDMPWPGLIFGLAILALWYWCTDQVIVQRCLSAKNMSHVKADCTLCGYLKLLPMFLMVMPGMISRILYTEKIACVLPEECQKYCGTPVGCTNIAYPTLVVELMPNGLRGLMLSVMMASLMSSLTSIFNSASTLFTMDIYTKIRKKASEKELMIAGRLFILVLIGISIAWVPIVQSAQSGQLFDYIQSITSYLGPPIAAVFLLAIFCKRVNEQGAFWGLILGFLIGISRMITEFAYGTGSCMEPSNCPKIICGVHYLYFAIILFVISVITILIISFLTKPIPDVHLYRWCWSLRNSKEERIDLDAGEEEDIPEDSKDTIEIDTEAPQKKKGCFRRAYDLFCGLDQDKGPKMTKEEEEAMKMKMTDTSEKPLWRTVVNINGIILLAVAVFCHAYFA
# Excerpt: as §1, §2
smiles,measurement,setting,value
"Cc1cc(/C=C/CCN2CCCC3(CCN(C(=O)CNC(=O)NCC(C)C)CC3)C2)ccc1Cc1c(O[C@@H]2O[C@H](CO)[C@@H](O)[C@H](O)[C@H]2O)n[nH]c1C(C)C [Example 1, 1-(2-{2-[(3E)-4-(4-{[3-(beta-D-glucopyranosyloxy)-5-(propan-2-yl)-1H-pyrazol-4-yl]methyl}-3-methylphenyl)but-3-en-1-yl]-2,9-diazaspiro[5.5]undec-9-yl}-2-oxoethyl)-3-(2-methylpropyl)urea]",Potency at SGLT1 relative to human SGLT2 (in words),"[1]; in vitro, human and mouse SGLT1 vs human SGLT2",more potent at human and mouse SGLT1 than at human SGLT2
same,IC50,"[1]; sodium-dependent 14C-AMG uptake, CHO-K1 cells, n = 5",17.3 ± 16.2 nM
same,"Glucose, 20 Minute",[2]; OGTT @ 5 hr post dose,124.7 ± 7.66 mg/dL
same,"Glucose, 40 Minute",[2]; OGTT @ 5 hr post dose,139.2 ± 7.69 mg/dL
same,"Glucose, 60 Minute",[2]; OGTT @ 5 hr post dose,133.2 ± 6.24 mg/dL
same,"Glucose, 120 Minute",[2]; OGTT @ 5 hr post dose,108.7 ± 4.93 mg/dL
same,"Glucose, 0 Minute",[2]; OGTT @ 5 hr post dose,75.9 ± 3.21 mg/dL
same,Baseline Adjusted AUC (glucose),[2]; OGTT @ 5 hr post dose,2815 ± 194 mg/dL
same,Glucose Cmax,[2]; OGTT @ 5 hr post dose,140.2 ± 7.48 mg/dL
same,Glucose Tmax,[2]; OGTT @ 5 hr post dose,56 ± 16 min
same,"Glucose, 20 Minute",[2]; OGTT @ 8 hrs post dose,142.4 ± 7.4 mg/dL
same,"Glucose, 40 Minute",[2]; OGTT @ 8 hrs post dose,168.1 ± 8.37 mg/dL
same,"Glucose, 60 Minute",[2]; OGTT @ 8 hrs post dose,171.2 ± 10.1 mg/dL
same,"Glucose, 120 Minute",[2]; OGTT @ 8 hrs post dose,113.6 ± 4.25 mg/dL
same,"Glucose, 0 Minute",[2]; OGTT @ 8 hrs post dose,75.5 ± 4.42 mg/dL
same,Baseline Adjusted AUC (glucose),[2]; OGTT @ 8 hrs post dose,4147 ± 456 mg/dL
same,Glucose Cmax,[2]; OGTT @ 8 hrs post dose,175.1 ± 9.3 mg/dL
same,Glucose Tmax,[2]; OGTT @ 8 hrs post dose,52 ± 4.9 min
same,"Glucose, 20 Minute",[2]; OGTT @ 18 hrs post dose,196.0 ± 16.6 mg/dL
same,"Glucose, 40 Minute",[2]; OGTT @ 18 hrs post dose,216.1 ± 15.0 mg/dL
same,"Glucose, 60 Minute",[2]; OGTT @ 18 hrs post dose,188.7 ± 13.8 mg/dL
same,"Glucose, 120 Minute",[2]; OGTT @ 18 hrs post dose,110.3 ± 5.74 mg/dL
same,"Glucose, 0 Minute",[2]; OGTT @ 18 hrs post dose,78.7 ± 8.81 mg/dL
same,Baseline Adjusted AUC (glucose),[2]; OGTT @ 18 hrs post dose,6194 ± 406 mg/dL
same,Glucose Cmax,[2]; OGTT @ 18 hrs post dose,216.1 ± 15.0 mg/dL
same,Glucose Tmax,[2]; OGTT @ 18 hrs post dose,44 ± 4.0 min
same,Average maximum concentration of plasma glucose (Cmax) (in words),[2]; during all three OGTTs,decreases
same,Average time for glucose to reach maximum concentration (Tmax) (in words),[2]; during all three OGTTs,increasing
same,Baseline adjusted glucose AUC (in words),[2]; during all three OGTTs,dose dependent decrease
same,Glucose excursion after oral bolus of 50% dextrose (in words),"[2]; normal glycemic C57Bl/6 mouse, five, eight or eighteen hours after administration",decrease in the glucose excursion
same,IC50,[3],171 ± 26 nM
same,IC50,[4],7.3 ± 2.9 nM
